From the NIST ThermoML archive (doi:10.1016/j.jct.2013.05.051)

Experiment: xn = mol fraction of the nth substance listed
Settings: Liquid, Vibrating tube method

CCCCCCCO [heptan-1-ol] + CCCCCCC
mass density [kg/m3]
Settings | x1 = 0.1493 | x1 = 0.3215 | x1 = 0.5226 | x1 = 0.6698 | x1 = 0.8469 | x1 = 1
313.15 K, 50000 kPa | 725.8 | 748 | 774.1 | 793.9 | 823.8 | 837.2
313.15 K, 55000 kPa | 728.8 | 750.9 | 776.9 | 796.6 | 826.4 | 839.7
313.15 K, 60000 kPa | 731.8 | 753.8 | 779.6 | 799.2 | 828.8 | 842.1
313.15 K, 65000 kPa | 734.6 | 756.5 | 782.2 | 801.8 | 831.2 | 844.4
313.15 K, 70000 kPa | 737.3 | 759.1 | 784.8 | 804.2 | 833.6 | 846.7
313.15 K, 80000 kPa | 742.5 | 764.2 | 789.6 | 808.9 | 838 | 851.1
313.15 K, 90000 kPa | 747.5 | 769 | 794.3 | 813.5 | 842.4 | 855.3
313.15 K, 100000 kPa | 752.1 | 773.6 | 798.7 | 817.7 | 846.4 | 859.3
313.15 K, 110000 kPa | 756.6 | 778 | 803 | 821.9 | 850.4 | 863.2
313.15 K, 120000 kPa | 760.8 | 782.1 | 807 | 825.8 | 854.2 | 867
313.15 K, 130000 kPa | 765 | 786.2 | 810.9 | 829.7 | 857.9 | 870.6
313.15 K, 140000 kPa | 768.9 | 790.1 | 814.7 | 833.4 | 861.5 | 874.2
333.15 K, 100 kPa | 669.3 | 693.9 | 722.8 | 745 | 778 | 793.3
333.15 K, 1000 kPa | 670.5 | 694.9 | 723.7 | 745.8 | 778.8 | 794
333.15 K, 5000 kPa | 675.1 | 699.1 | 727.6 | 749.5 | 782 | 797.1
333.15 K, 10000 kPa | 680.5 | 704.1 | 732.1 | 753.7 | 785.9 | 800.7
333.15 K, 15000 kPa | 685.6 | 708.9 | 736.5 | 757.8 | 789.7 | 804.3
333.15 K, 20000 kPa | 690.2 | 713.2 | 740.5 | 761.7 | 793.1 | 807.7
333.15 K, 25000 kPa | 694.5 | 717.3 | 744.4 | 765.3 | 796.5 | 810.8
333.15 K, 30000 kPa | 698.8 | 721.2 | 748.1 | 768.8 | 799.7 | 813.9
333.15 K, 35000 kPa | 702.7 | 725 | 751.6 | 772.1 | 802.8 | 816.9
333.15 K, 40000 kPa | 706.4 | 728.5 | 755 | 775.3 | 805.8 | 819.8
333.15 K, 45000 kPa | 710 | 731.9 | 758.1 | 778.3 | 808.7 | 822.4
333.15 K, 50000 kPa | 713.5 | 735.2 | 761.3 | 781.4 | 811.5 | 825.2
333.15 K, 55000 kPa | 716.7 | 738.3 | 764.3 | 784.2 | 814.2 | 827.8
333.15 K, 60000 kPa | 719.9 | 741.3 | 767.2 | 787 | 816.8 | 830.3
333.15 K, 65000 kPa | 723 | 744.3 | 770 | 789.8 | 819.4 | 832.9
333.15 K, 70000 kPa | 726 | 747.2 | 772.8 | 792.4 | 821.9 | 835.3
333.15 K, 80000 kPa | 731.6 | 752.6 | 778 | 797.4 | 826.7 | 839.9
333.15 K, 90000 kPa | 737 | 757.8 | 783 | 802.3 | 831.3 | 844.5
333.15 K, 100000 kPa | 742 | 762.6 | 787.7 | 806.8 | 835.6 | 848.7
333.15 K, 110000 kPa | 746.8 | 767.3 | 792.2 | 811.2 | 839.8 | 852.8
333.15 K, 120000 kPa | 751.3 | 771.6 | 796.4 | 815.4 | 843.8 | 856.8
333.15 K, 130000 kPa | 755.6 | 775.8 | 800.6 | 819.4 | 847.7 | 860.5
333.15 K, 140000 kPa | 759.8 | – | – | – | – | –
